{"source": "patent US9970848B2", "about": "“Method for evaluating state of horny layer and method for evaluating horny layer improvement effect of cosmetic preparation” (Shiseido Company, Ltd., priority 2013, dated 2018)", "system": "stratum corneum sheets obtained from the forearm flexor region", "test": "Screening of candidate cosmetics for ameliorating effect on the stratum corneum (fluorescein staining after wetting and drying)", "details": "3% aqueous solution, 1 h immersion, dried 2 hours at 0% humidity, room temperature; 0.2 w/v % uranin staining; 12 visual fields averaged", "procedure": "Stratum corneum sheets obtained from the forearm flexor region using stratum corneum release tape were affixed to glass slides, and each affixed stratum corneum sheet was immersed for one hour in water (two sheets) as a control and in a 3% erythritol aqueous solution (ER) and a 3% AQUAINPOOL 1407 aqueous solution (AQ), as candidate cosmetics. Next, one of the water-wetted stratum corneum sheets was dried at 0% humidity, room temperature, while the other was dried for 2 hours at 90% humidity, room temperature. The stratum corneum sheets wetted with ER and AQ were dried for 2 hours at 0% humidity, room temperature. […] The taken image was corrected for distortion and digitized using analysis software, and the fluorescent brightness was calculated.", "data": [{"molecule": "OC[C@@H](O)[C@@H](O)CO", "note": "[ER, erythritol]", "values": [{"measurement": "fluorescent brightness compared with the water-wetted stratum corneum sheet (dried at 0% humidity)", "result": "about the same"}]}]}
